PubChem BioAssay AID2060882 (Molecular Pharmacology Branch, DTP, NCI, 2025)
Each block holds one compound with its values, some of them ahead of it.

System: 898857-211-R-J1-PDC complex spheroids, growth % test/control
Assay: Anticancer human tumor 898857-211-R-J1-PDC patient-derived melanoma cell line growth inhibition [RAS]
Conditions: for IC50: curve of first compound; for viability, T/C: stronger effect = lower value
In short: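 Agents were tested in combination matrices in half-log decrements from a top concentration at or near clinical Cmax (10 microM if undetermined). Targets were multi-cell spheroids of tumour lines plus HUVEC and MSC stromal cells.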

[1] = second compound 0.000949 µM, first compound 0.0316 µM
[2] = second compound 0.000949 µM, first compound 0.1 µM
[3] = second compound 0.000949 µM, first compound 0.316 µM
[4] = second compound 0.000949 µM, first compound 1 µM
[5] = second compound 0.000949 µM, first compound 3.16 µM
[6] = second compound 0.000949 µM, first compound 10 µM
[7] = second compound 0.003 µM, first compound 0.0316 µM
[8] = second compound 0.003 µM, first compound 0.1 µM
[9] = second compound 0.003 µM, first compound 0.316 µM
[10] = second compound 0.003 µM, first compound 1 µM
[11] = second compound 0.003 µM, first compound 3.16 µM
[12] = second compound 0.003 µM, first compound 10 µM
[13] = second compound 0.00949 µM, first compound 0.0316 µM
[14] = second compound 0.00949 µM, first compound 0.1 µM
[15] = second compound 0.00949 µM, first compound 0.316 µM
[16] = second compound 0.00949 µM, first compound 1 µM
[17] = second compound 0.00949 µM, first compound 3.16 µM
[18] = second compound 0.00949 µM, first compound 10 µM
[19] = second compound 0.03 µM, first compound 0.0316 µM
[20] = second compound 0.03 µM, first compound 0.1 µM
[21] = second compound 0.03 µM, first compound 0.316 µM
[22] = second compound 0.03 µM, first compound 1 µM
[23] = second compound 0.03 µM, first compound 3.16 µM
[24] = second compound 0.03 µM, first compound 10 µM
[25] = second compound 0.0949 µM, first compound 0.0316 µM
[26] = second compound 0.0949 µM, first compound 0.1 µM
[27] = second compound 0.0949 µM, first compound 0.316 µM
[28] = second compound 0.0949 µM, first compound 1 µM
[29] = second compound 0.0949 µM, first compound 3.16 µM
[30] = second compound 0.0949 µM, first compound 10 µM
[31] = second compound 0.3 µM, first compound 0.0316 µM
[32] = second compound 0.3 µM, first compound 0.1 µM
[33] = second compound 0.3 µM, first compound 0.316 µM
[34] = second compound 0.3 µM, first compound 1 µM
[35] = second compound 0.3 µM, first compound 3.16 µM
[36] = second compound 0.3 µM, first compound 10 µM
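Further: spheroids exposed to compound for seven days before readout.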
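Wherever viability, T/C is given: 100% = DMSO vehicle control wells.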

IC50 (second compound 0.000949 µM): > 10 µM | IC50 (second compound 0.003 µM): > 10 µM | IC50 (second compound 0.00949 µM): 9.66 µM | IC50 (second compound 0.03 µM): 8.56 µM | IC50 (second compound 0.0949 µM): 5.46 µM | IC50 (second compound 0.3 µM): 3.31 µM
Structure (SMILES): CC(C)NCC(C(=O)N1CCN(c2ncnc3c2C(C)CC3O)CC1)c1ccc(Cl)cc1 (centres undefined) + CCn1c(-c2cccnc2C(C)OC)c2c3cc(ccc31)N1CCOC(CC(NC(=O)C(C(C)C)N(C)C(=O)C3(F)CCN(C(=O)C#CC(C)(C)N(C)C)CC3)C(=O)N3CCCC(N3)C(=O)OCC(C)(C)C2)C1
viability, T/C [1]: 111% | viability, T/C [2]: 101% | viability, T/C [3]: 90.9% | viability, T/C [4]: 91.6% | viability, T/C [5]: 65.4% | viability, T/C [6]: 50.9% | viability, T/C [7]: 115% | viability, T/C [8]: 117% | viability, T/C [9]: 103% | viability, T/C [10]: 82.1% | viability, T/C [11]: 79.6% | viability, T/C [12]: 57.2% | viability, T/C [13]: 113% | viability, T/C [14]: 110% | viability, T/C [15]: 102% | viability, T/C [16]: 84.8% | viability, T/C [17]: 73% | viability, T/C [18]: 48.7% | viability, T/C [19]: 112% | viability, T/C [20]: 100% | viability, T/C [21]: 97.3% | viability, T/C [22]: 91.1% | viability, T/C [23]: 74.4% | viability, T/C [24]: 45.6% | viability, T/C [25]: 92% | viability, T/C [26]: 89.4% | viability, T/C [27]: 92.7% | viability, T/C [28]: 76.4% | viability, T/C [29]: 60.1% | viability, T/C [30]: 39.7% | viability, T/C [31]: 75% | viability, T/C [32]: 72.7% | viability, T/C [33]: 69.5% | viability, T/C [34]: 55.9% | viability, T/C [35]: 53.5% | viability, T/C [36]: 37.1%

IC50 (second compound 0.000949 µM): > 10 µM | IC50 (second compound 0.003 µM): > 10 µM | IC50 (second compound 0.00949 µM): > 10 µM | IC50 (second compound 0.03 µM): > 10 µM | IC50 (second compound 0.0949 µM): > 10 µM | IC50 (second compound 0.3 µM): 5.64 µM
Structure (SMILES): CC(Nc1ccc2c(c1)OCCn1cc(N3C(=O)OCC3C(F)F)nc1-2)C(N)=O (centres undefined) + CCn1c(-c2cccnc2C(C)OC)c2c3cc(ccc31)N1CCOC(CC(NC(=O)C(C(C)C)N(C)C(=O)C3(F)CCN(C(=O)C#CC(C)(C)N(C)C)CC3)C(=O)N3CCCC(N3)C(=O)OCC(C)(C)C2)C1
viability, T/C [1]: 110% | viability, T/C [2]: 87% | viability, T/C [3]: 89.4% | viability, T/C [4]: 92.7% | viability, T/C [5]: 89.3% | viability, T/C [6]: 65.8% | viability, T/C [7]: 105% | viability, T/C [8]: 103% | viability, T/C [9]: 97.4% | viability, T/C [10]: 104% | viability, T/C [11]: 96.7% | viability, T/C [12]: 63.2% | viability, T/C [13]: 94.9% | viability, T/C [14]: 104% | viability, T/C [15]: 92.8% | viability, T/C [16]: 103% | viability, T/C [17]: 78.7% | viability, T/C [18]: 66.4% | viability, T/C [19]: 89.8% | viability, T/C [20]: 98.3% | viability, T/C [21]: 98.2% | viability, T/C [22]: 95.4% | viability, T/C [23]: 75.8% | viability, T/C [24]: 58.8% | viability, T/C [25]: 103% | viability, T/C [26]: 98.7% | viability, T/C [27]: 91% | viability, T/C [28]: 83.8% | viability, T/C [29]: 63.1% | viability, T/C [30]: 53% | viability, T/C [31]: 73.9% | viability, T/C [32]: 74.7% | viability, T/C [33]: 68% | viability, T/C [34]: 69.5% | viability, T/C [35]: 57.6% | viability, T/C [36]: 41.8%
